Assay results from ChEMBL document CHEMBL1201862, “PubChem BioAssay data set” (2004).
Calls of active or inactive are those of the source.

What was measured:
[1] = target: T1, Mitochondrial peptide methionine sulfoxide reductase (Bos taurus, UniProt P54149); experiment: Absorbance-based biochemical high throughput dose response assay for activators of Methionine sulfoxide reductase A (MsrA).; assay type: functional
T1 sequence (P54149 whole entry): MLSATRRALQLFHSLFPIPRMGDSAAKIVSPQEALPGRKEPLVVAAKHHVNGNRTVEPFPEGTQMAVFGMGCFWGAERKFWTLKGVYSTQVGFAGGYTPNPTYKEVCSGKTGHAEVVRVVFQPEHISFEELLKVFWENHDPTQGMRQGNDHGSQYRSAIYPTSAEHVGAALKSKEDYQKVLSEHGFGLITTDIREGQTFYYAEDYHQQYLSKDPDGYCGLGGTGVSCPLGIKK

[2] = target: Large T antigen (Simian virus 40, UniProt P03070); assay type: functional, Betapolyomavirus macacae;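 further: Confirmatory-stage PubChem screen for compounds that inhibit SV40 T antigen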
Chain of Large T antigen (P03070 whole entry): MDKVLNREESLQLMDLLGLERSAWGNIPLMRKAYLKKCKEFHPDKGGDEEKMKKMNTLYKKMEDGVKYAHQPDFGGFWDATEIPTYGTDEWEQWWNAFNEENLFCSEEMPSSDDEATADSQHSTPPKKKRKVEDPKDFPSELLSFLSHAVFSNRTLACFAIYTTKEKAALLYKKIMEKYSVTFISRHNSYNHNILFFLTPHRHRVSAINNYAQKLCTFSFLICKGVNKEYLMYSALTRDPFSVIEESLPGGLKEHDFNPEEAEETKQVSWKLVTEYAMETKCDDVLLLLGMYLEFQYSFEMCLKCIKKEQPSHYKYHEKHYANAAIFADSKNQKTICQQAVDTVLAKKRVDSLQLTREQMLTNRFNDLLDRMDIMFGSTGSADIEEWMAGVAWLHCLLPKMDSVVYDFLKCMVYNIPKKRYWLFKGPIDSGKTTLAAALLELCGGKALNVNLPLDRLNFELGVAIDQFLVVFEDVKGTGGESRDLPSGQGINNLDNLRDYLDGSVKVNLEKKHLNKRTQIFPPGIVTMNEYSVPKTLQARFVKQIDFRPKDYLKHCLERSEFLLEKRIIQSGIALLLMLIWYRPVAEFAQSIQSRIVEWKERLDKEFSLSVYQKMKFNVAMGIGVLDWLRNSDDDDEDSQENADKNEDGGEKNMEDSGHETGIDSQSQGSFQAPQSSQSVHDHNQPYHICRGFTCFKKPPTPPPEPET

[3] = target: Ras and Rab interactor 1/Tyrosine-protein kinase ABL1 (Homo sapiens, UniProt P00519+Q13671); assay type: functional;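 further: biochemical TR-FRET dose-response test measuring inhibition of binding between Rin1 and Abl proteins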
Chain of Ras and Rab interactor 1/Tyrosine-protein kinase ABL1 (P00519 whole entry): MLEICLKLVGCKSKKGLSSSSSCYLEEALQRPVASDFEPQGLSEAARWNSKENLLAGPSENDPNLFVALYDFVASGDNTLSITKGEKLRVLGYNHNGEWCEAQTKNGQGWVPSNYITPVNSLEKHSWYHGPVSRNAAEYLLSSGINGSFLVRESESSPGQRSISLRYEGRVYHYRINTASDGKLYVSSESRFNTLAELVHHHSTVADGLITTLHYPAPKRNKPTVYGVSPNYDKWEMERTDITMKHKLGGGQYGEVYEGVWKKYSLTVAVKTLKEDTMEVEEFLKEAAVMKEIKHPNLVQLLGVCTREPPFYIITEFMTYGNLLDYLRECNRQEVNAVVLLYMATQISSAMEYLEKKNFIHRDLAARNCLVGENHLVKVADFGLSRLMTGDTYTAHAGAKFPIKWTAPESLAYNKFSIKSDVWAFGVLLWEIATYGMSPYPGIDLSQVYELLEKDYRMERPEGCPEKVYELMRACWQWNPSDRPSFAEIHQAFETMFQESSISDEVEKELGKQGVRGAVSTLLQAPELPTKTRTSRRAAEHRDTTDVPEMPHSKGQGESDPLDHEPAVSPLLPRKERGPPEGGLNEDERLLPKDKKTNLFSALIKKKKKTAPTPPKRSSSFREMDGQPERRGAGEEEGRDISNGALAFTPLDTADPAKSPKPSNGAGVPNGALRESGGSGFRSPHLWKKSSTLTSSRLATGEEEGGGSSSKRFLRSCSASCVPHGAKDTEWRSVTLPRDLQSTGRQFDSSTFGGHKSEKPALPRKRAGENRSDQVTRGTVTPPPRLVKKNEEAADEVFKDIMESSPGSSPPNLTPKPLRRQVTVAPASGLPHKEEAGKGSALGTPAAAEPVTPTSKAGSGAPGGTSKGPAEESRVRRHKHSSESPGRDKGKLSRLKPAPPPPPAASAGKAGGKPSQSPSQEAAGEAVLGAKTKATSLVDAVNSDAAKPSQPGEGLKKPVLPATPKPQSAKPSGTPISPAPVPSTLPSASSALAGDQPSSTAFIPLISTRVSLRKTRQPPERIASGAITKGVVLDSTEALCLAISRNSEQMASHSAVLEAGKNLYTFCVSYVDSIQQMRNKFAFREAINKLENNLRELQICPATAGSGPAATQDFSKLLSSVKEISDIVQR
Chain of Ras and Rab interactor 1/Tyrosine-protein kinase ABL1 (Q13671 whole entry): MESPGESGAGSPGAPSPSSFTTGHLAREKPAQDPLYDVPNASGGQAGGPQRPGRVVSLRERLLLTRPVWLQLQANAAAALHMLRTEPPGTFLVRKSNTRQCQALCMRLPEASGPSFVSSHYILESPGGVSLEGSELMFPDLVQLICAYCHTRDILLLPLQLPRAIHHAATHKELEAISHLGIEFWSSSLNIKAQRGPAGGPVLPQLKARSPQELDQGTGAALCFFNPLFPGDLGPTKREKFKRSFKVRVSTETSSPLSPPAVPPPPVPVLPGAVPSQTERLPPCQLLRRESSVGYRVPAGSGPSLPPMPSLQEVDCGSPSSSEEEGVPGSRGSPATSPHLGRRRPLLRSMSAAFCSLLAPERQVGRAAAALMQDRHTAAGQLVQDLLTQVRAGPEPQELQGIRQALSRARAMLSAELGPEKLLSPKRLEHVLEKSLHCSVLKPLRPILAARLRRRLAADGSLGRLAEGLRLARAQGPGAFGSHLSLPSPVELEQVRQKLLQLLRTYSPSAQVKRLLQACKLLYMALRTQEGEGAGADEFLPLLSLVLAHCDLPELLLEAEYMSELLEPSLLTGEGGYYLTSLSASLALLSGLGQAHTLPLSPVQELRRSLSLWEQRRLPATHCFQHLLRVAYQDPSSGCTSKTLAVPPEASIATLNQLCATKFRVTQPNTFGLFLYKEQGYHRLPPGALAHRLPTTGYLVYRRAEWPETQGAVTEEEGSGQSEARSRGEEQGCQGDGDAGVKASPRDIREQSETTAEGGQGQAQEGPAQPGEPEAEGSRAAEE

[4] = target: Cytochrome P450 2C19 (Homo sapiens, UniProt P33261); experiment: Cytochrome panel assay with activity outcomes. Panel member name: p450-cyp2c19 Compounds with AC50 equal or less than 10 uM are considered active; assay type: functional; details: read-out: AC50
Chain of Cytochrome P450 2C19 (P33261 whole entry): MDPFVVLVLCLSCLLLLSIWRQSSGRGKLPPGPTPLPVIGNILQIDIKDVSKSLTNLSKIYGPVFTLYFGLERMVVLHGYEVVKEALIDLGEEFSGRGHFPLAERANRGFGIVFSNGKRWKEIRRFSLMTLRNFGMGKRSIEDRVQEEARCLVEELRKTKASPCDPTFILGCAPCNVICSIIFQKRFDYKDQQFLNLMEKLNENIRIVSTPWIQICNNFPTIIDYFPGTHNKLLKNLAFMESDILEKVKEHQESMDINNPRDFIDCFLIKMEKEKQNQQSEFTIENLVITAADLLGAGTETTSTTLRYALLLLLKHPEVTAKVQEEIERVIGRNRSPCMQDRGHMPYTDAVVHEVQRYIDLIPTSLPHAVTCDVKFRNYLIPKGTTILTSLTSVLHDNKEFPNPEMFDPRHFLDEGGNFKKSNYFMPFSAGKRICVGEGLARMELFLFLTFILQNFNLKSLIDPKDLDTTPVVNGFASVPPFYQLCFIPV

[5] = miR-122 activators in hepatoma reporter cells, dose response, cell-based, Huh7 psiCHECK-miR122, Renilla luciferase, cherry-picked (AID 651956); assay type: functional;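 further: huh7 hepatoma cells stably carrying a psiCHECK-2 miR-122 sensor plasmid; renilla luciferase signal reporting endogenous miR-122 activity after 48 h compound exposure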
[6] = target: Cytochrome P450 2C9 (Homo sapiens, UniProt P11712)
Chain of Cytochrome P450 2C9 (P11712 whole entry): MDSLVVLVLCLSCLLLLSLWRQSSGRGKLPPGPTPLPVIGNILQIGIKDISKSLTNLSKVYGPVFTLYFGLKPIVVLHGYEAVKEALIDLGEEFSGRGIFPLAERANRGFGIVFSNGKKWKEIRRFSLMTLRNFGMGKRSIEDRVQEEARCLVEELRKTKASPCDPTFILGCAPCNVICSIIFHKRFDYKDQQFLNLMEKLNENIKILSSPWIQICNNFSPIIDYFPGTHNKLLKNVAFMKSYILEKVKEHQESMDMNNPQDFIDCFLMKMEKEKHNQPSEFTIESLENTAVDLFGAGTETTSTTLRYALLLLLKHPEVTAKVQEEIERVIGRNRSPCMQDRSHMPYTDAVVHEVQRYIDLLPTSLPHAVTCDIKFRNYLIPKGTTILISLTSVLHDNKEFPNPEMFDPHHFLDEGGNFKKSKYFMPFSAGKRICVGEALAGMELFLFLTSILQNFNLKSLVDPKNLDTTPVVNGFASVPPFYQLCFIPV

[7] = inhibitors of firefly luciferase expression or activity, dose response, H4 neuroglioma cells, luminescence (AID 1990); assay type: functional, cell-based
[8] = inhibitors of SNCA 5'UTR-driven reporter translation, confirmation, H4 neuroglioma cells, luminescence (AID 1988); assay type: functional, cell-based
[9] = Luminescence Cell-Based Dose Response HTS to Identify Inhibitors of 5'UTR Stem-Loop Driven Prion Protein mRNA Translation in H4 Neuroglioblastoma Cells. [Related pubchem assays: 1827 (Project Summary), 1813 (Primary HTS)]; assay type: functional
[10] = target: T2, Orexin receptor type 2 (Homo sapiens, UniProt O43614); experiment: Counterscreen assay for antagonists of the orexin 1 receptor (OX1R; HCRTR1): Homogeneous Time Resolved Fluorescence (HTRF)-based cell-based dose response assay for antagonists of the orexin 2 receptor (OX2R; HCRTR2), run by assay provider.; assay type: functional
T2 sequence (O43614 whole entry): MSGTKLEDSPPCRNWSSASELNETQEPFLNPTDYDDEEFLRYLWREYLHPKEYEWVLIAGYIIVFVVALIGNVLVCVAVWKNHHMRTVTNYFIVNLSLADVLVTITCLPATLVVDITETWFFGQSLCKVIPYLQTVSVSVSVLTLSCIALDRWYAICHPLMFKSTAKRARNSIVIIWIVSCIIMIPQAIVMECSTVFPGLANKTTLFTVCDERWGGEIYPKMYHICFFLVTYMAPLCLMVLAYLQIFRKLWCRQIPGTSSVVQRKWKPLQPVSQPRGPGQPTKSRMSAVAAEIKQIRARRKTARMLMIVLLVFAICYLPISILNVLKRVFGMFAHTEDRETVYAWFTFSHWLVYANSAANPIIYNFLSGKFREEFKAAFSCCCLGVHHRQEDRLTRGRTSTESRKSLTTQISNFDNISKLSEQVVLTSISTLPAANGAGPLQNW

[11] = target: Beta-galactosidase (Escherichia coli, UniProt Q8VNN2); experiment: PubChem AID 485352; assay type: functional
Chain of Beta-galactosidase (Q8VNN2 whole entry): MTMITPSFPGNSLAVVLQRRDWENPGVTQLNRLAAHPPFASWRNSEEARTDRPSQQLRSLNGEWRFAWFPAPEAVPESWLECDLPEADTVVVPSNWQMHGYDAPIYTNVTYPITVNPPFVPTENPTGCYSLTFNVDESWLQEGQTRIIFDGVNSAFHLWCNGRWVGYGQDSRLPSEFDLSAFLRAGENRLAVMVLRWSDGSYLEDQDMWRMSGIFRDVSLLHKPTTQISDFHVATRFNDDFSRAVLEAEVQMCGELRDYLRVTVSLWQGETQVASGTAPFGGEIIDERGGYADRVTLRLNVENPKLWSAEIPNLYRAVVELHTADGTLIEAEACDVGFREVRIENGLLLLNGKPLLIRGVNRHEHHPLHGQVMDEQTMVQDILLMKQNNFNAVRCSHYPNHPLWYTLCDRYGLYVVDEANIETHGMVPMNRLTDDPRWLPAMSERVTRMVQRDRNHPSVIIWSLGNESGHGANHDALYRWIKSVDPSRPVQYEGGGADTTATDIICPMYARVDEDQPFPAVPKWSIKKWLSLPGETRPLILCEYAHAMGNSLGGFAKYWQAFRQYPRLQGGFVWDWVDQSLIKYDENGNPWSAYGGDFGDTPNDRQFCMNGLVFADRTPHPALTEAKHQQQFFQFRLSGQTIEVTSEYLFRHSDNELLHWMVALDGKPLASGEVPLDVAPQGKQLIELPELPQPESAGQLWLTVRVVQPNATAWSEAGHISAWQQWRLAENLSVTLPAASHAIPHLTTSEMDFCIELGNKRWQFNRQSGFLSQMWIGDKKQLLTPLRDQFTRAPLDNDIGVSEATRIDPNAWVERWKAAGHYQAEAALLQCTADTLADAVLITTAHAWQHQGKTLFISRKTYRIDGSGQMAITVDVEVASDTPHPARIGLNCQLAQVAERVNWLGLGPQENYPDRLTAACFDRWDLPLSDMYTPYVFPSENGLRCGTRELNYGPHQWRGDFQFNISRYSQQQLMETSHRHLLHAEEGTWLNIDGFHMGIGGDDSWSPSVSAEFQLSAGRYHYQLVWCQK

[12] = (§1) Counterscreen for antagonists of the orexin 1 receptor (OX1R; HCRTR1): Fluorescence-based cell-based high throughput dose response assay to identify antagonists of the parental CHO cell line. [Related pubchem assays (depositor defined):AID434989, AID435008, AID463079, AID485270, AID492963, AID492964, AID492965, AID493232, AID504699, AID504701]; assay type: functional
[13] = target: T3, Type-1 angiotensin II receptor (Homo sapiens, UniProt P30556); experiment: AT1 receptor antagonists, dose response, selectivity assay for APJ receptor antagonist project, cell-based, uHTS hits (AID 463214); assay type: functional;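 further: antagonist potency against angiotensin II stimulated AT1 response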
T3 sequence (P30556 whole entry): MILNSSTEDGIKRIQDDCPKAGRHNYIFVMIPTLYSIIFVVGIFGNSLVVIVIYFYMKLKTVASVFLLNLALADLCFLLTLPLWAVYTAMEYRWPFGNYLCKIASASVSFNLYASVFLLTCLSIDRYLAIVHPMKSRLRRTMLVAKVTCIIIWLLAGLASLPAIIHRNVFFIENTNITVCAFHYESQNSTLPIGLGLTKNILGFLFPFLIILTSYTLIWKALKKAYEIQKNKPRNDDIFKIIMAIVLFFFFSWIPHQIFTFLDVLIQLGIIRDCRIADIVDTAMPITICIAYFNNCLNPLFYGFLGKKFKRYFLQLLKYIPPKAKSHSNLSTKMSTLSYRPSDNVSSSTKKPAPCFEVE

[14] = test system: CHO-K1; experiment: as §1, with “Homogeneous time resolved fluorescence (HTRF)-based” for “Fluorescence-based”, “cell-based” for “cell-based high throughput”, “CHO-K1” for “CHO”; assay type: functional; details: Cricetulus griseus;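 further: potency for inhibition of ATP-stimulated IP1 production as antagonists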
[15] = target: T2, Orexin receptor type 2; experiment: Counterscreen assay for antagonists of the orexin 1 receptor (OX1R; HCRTR1): Fluorescence-based cell-based dose response assay for antagonists of the orexin 2 receptor (OX2R; HCRTR2), run by assay provider.; assay type: functional
[16] = target: T4, Orexin/Hypocretin receptor type 1 (Homo sapiens, UniProt O43613); experiment: Homogeneous Time Resolved Fluorescence (HTRF)-based cell-based high throughput dose response assay for antagonists of the orexin 1 receptor (OX1R; HCRTR1). [Related pubchem assays (depositor defined):AID434989, AID435008, AID463079, AID485270, AID492963, AID492964, AID492965, AID493232, AID504717, AID504718]; assay type: functional
T4 sequence (O43613 whole entry): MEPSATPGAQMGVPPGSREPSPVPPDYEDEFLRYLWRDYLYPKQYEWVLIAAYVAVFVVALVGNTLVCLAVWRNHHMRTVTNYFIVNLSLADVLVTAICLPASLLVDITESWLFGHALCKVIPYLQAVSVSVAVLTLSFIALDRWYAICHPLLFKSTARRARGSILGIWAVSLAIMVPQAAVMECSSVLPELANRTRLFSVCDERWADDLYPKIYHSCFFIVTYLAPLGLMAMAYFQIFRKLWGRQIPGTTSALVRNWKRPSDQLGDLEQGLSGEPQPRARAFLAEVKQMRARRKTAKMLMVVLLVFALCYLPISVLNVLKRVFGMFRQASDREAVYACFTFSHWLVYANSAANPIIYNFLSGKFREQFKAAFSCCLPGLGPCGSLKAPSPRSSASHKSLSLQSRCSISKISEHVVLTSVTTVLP

[17] = target: T4, Orexin/Hypocretin receptor type 1; experiment: Fluorescence-based cell-based high throughput dose response assay for antagonists of the orexin 1 receptor (OX1R; HCRTR1). [Related pubchem assays (depositor defined):AID434989, AID435008, AID463079, AID485270, AID492963, AID492964, AID492965, AID493232, AID504717, AID504718]; assay type: functional

SMILES: COCCCn1c(=O)c2ccccc2n2c(S)nnc12
- EC50 [1]: > 104 µM (inactive)
- IC50 [2]: 9.15 µM (active)

SMILES: CC(C)n1cc(CN2CCC(C(=O)Nc3cccc(-c4cscn4)c3)CC2)cn1
- IC50 [3]: 54.5 µM (inactive)

SMILES: CN(C)CCNc1ncnc2c1sc1nc(N3CCOCC3)c3c(c12)CC(C)(C)SC3
- AC50 [4]: 31.6 µM (inconclusive)
- IC50 [3]: 13.7 µM (inactive)
- AC50 [5]: 12.9 µM (active)
- AC50 [6]: 25.1 µM (inconclusive)
- EC50 [7]: 8.43 µM (active)
- EC50 [8]: 8.17 µM (active)
- EC50 [9]: 23.9 µM (active)

SMILES: CN(/N=C/c1cc([N+](=O)[O-])ccc1O)c1ccccc1
- IC50 [10]: > 50 µM (inactive)
- EC50 [11]: > 40 µM (inactive)
- IC50 [12]: > 49.7 µM (inactive)
- IC50 [13]: > 40 µM (not active)
- IC50 [14]: > 66.2 µM (inactive)
- IC50 [15]: > 88.8 µM (inactive)
- IC50 [16]: 2.39 µM (active)
- IC50 [17]: 2.48 µM (active)
